Test results taken from ChEMBL document CHEMBL5634129, “Design, synthesis, and structure-activity relationships of a novel class of quinazoline derivatives as coronavirus inhibitors” (Eur J Med Chem, 2023).
pEC50: −log10 of the molar value. Activity calls are given as the source filed them. The calls are words filed in the database; no cut-off is given here.

What was measured:
Human coronavirus OC43 [1] = test: Antiviral activity against HCoV-OC43 infected in human H460 cells assessed as decrease in viral nucleocapsid protein level at 2 uM by Hoechst 33342 staining based analysis; format: functional, organism-based; conditions: NCI-H460
[2] = Selectivity index, ratio of TC50 for human NCI-H460 cells infected with HCoV-OC43 to EC50 for HCoV-OC43 infected in human NCI-H460 cells; format: toxicity, cell-based; conditions: read-out: Selectivity Index
Human coronavirus OC43 [3] = test: Antiviral activity against HCoV-OC43 infected in human H460 cells assessed as viral inhibition at early stage at 500 nM measured upto 12 hrs by Hoechst 33342 staining based analysis; format: functional, organism-based; conditions: NCI-H460
[4] = Cytotoxicity in human NCI-H460 cells infected with HCoV-OC43 treated for 72 hrs by CPE inhibition assay; format: toxicity, cell-based; conditions: read-out: TC50
Human coronavirus OC43 [5] = test: Antiviral activity against HCoV-OC43 infected in human NCI-H460 cells treated for 72 hrs by CPE inhibition assay; format: functional, organism-based; conditions: Betacoronavirus 1, NCI-H460, 72 h
Human coronavirus OC43 [6] = test: Antiviral activity against HCoV-OC43 infected in human H460 cells assessed as decrease in viral nucleocapsid protein level by Hoechst 33342 staining based analysis; format: functional, organism-based; conditions: NCI-H460, dose 0.1-10 µM
Human coronavirus OC43 [7] = test: Antiviral activity against HCoV-OC43 infected in human H460 cells assessed as decrease in viral nucleocapsid protein mRNA level by qRT-PCR analysis; format: functional, organism-based; conditions: NCI-H460, dose 0.1-10 µM
Human coronavirus OC43 [8] = test: Antiviral activity against HCoV-OC43 infected in human H460 cells assessed as decrease in viral nucleocapsid protein level at 10 uM by Hoechst 33342 staining based analysis relative to control; format: functional, NCI-H460; parameters: scale not given: the % may be the effect or the level left
Human coronavirus OC43 [9] = test: Antiviral activity against HCoV-OC43 infected in human H460 cells assessed as viral inhibition at early stage at 10 uM measured upto 12 hrs by Hoechst 33342 staining based analysis; format: functional, organism-based; conditions: NCI-H460

Q: What does the source list for `CCC(CC)COC(=O)[C@H](C)N[P@](=O)(OC[C@H]1O[C@@](C#N)(c2ccc3c(N)ncnn23)[C@H](O)[C@@H]1O)Oc1ccccc1` [REMDESIVIR]?
A: Activity (Human coronavirus OC43 [1]): Active; selectivity ratio [2]: > 143; inhibition (Human coronavirus OC43 [3]): Active; CC50 at 72 h [4]: > 20 µM; pEC50 (Human coronavirus OC43 [5]): 6.85

Q: For `COc1ccc2ncnc(Nc3cc(F)cc(F)c3)c2c1`, which selectivity ratio [2] is on record?
A: 16.3

Q: And the CC50 at 72 h [4]?
A: 388 µM

Q: And the pEC50 (Human coronavirus OC43 [5])?
A: 4.62

Q: Which selectivity ratio [2] does the source give for `FC(F)(F)c1cc(Nc2ncnc3cc(Cl)ccc23)cc(C(F)(F)F)c1` here?
A: 3

Q: And the CC50 at 72 h [4]?
A: 1.43 µM

Q: And the pEC50 (Human coronavirus OC43 [5])?
A: 6.33

Q: Which results are given for `CCOc1ccc2nc(NCCN3CCOCC3)nc(Nc3cc(C(F)(F)F)cc(C(F)(F)F)c3)c2c1`?
A: Activity (Human coronavirus OC43 [6]): Dose-Dependent Effect; selectivity ratio [2]: 48.1; CC50 at 72 h [4]: 5.77 µM; Activity (Human coronavirus OC43 [7]): Dose-Dependent Effect; pEC50 (Human coronavirus OC43 [5]): 6.92; Activity (Human coronavirus OC43 [8]): 100%

Q: Which selectivity ratio [2] does the source give for `FC(F)(F)c1cc(Nc2ncnc3ncccc23)cc(C(F)(F)F)c1` here?
A: 6.2

Q: What about the CC50 at 72 h [4] of the same compound?
A: 32.1 µM

Q: And the pEC50 (Human coronavirus OC43 [5])?
A: 5.29

Q: Which results are given for `CCOc1ccc2nc(NCCOC)nc(Nc3cc(C(F)(F)F)cc(C(F)(F)F)c3)c2c1`?
A: Activity (Human coronavirus OC43 [6]): Dose-Dependent Effect; selectivity ratio [2]: 57.7; CC50 at 72 h [4]: 5.77 µM; Activity (Human coronavirus OC43 [7]): Dose-Dependent Effect; pEC50 (Human coronavirus OC43 [5]): 7.00; Activity (Human coronavirus OC43 [8]): 100%

Q: Which selectivity ratio [2] does the source give for `COc1ccc2ncnc(Oc3cc(C(F)(F)F)cc(C(F)(F)F)c3)c2c1` here?
A: 240

Q: And the CC50 at 72 h [4]?
A: 240 µM

Q: What about the pEC50 (Human coronavirus OC43 [5]) of the same compound?
A: < 4.26

Q: For `COC(=O)c1cc(Nc2ncnc3ccc(OC)cc23)cc(C(=O)OC)c1`, which selectivity ratio [2] is on record?
A: 4.3

Q: What about the CC50 at 72 h [4] of the same compound?
A: 240 µM

Q: What about the pEC50 (Human coronavirus OC43 [5]) of the same compound?
A: 4.26

Q: Which selectivity ratio [2] does the source give for `CCCNc1nc(Nc2cc(C(F)(F)F)cc(C(F)(F)F)c2)c2cc(OCC)ccc2n1` here?
A: 9

Q: And the CC50 at 72 h [4]?
A: 6.17 µM

Q: What about the pEC50 (Human coronavirus OC43 [5]) of the same compound?
A: 6.16

Q: With `CCOc1ccc2nc(NCC3CCCO3)nc(Nc3cc(C(F)(F)F)cc(C(F)(F)F)c3)c2c1` (stereo unspecified) as the compound, how does the Activity (Human coronavirus OC43 [6]) read?
A: Dose-Dependent Effect

Q: What about the selectivity ratio [2] of the same compound?
A: 1070

Q: What about the inhibition (Human coronavirus OC43 [9]) of the same compound?
A: Active

Q: And the CC50 at 72 h [4]?
A: 96.2 µM

Q: And the Activity (Human coronavirus OC43 [7])?
A: Dose-Dependent Effect

Q: And the pEC50 (Human coronavirus OC43 [5])?
A: 7.05

Q: And the Activity (Human coronavirus OC43 [8])?
A: 100%

Q: What does the source list for `COC(=O)c1cc(C#N)cc(Nc2ncnc3ccc(OC)cc23)c1`?
A: selectivity ratio [2]: > 189; CC50 at 72 h [4]: > 500 µM; pEC50 (Human coronavirus OC43 [5]): 5.58

Q: What does the source list for `CCOc1ccc2nc(NCc3cccs3)nc(Nc3cc(C(F)(F)F)cc(C(F)(F)F)c3)c2c1`?
A: selectivity ratio [2]: 3.6; CC50 at 72 h [4]: 10.7 µM; pEC50 (Human coronavirus OC43 [5]): 5.53

Q: Which results are given for `COC(=O)c1cc(Cl)cc(Nc2ncnc3ccc(OC)cc23)c1`?
A: selectivity ratio [2]: 90.4; CC50 at 72 h [4]: 129 µM; pEC50 (Human coronavirus OC43 [5]): 5.84
